System: predicted CTL epitopes from Tie-2
Assay: Ex-vivo IFNγ ELISPOT with predicted CTL epitopes from Tie-2
Format: in vivo, HHDII mice
Settings: for Peptide-specific IFNγ response, highest mean value: peptide in IFA
Method: (C) and (D) HHDII mice were either untreated (c) or treated with 400 μg PC61mAb i.p., (d). 4 days later, all mice were immunized with the Tie2 C200HFc DNA construct. DNA immunizations were repeated at 7 day intervals for a total of 3 immunisations. 6 days after the final immunisation, splenocytes were harvested and restimulated in an ex-vivo IFNγ ELISPOT assay with 1 μg/ml of each of the predicted CTL epitopes from Tie-2. Bars indicate the mean of triplicate values for each individual mouse, normalized to background controls, with error bars representing the standard deviation from the mean.
(E) and (F), HHDII mice were either untreated (e) (n=3) or treated (f) (n=2) with 400 μg PC61 antibody i.p. After 4 days, all mice were immunised with 100 μg Z12 peptide and 100 μg Z48 peptide, mixed 1:1 in IFA (s.c.). Repeat peptide immunisations were administered 7 days after the first peptide immunisation. Splenocytes were harvested 14 days after the final immunisation and restimulated with 1 μg/ml Z12 peptide (black bars) or media alone (open bars) in an IFNγ ELIspot assay. Bars indicate the mean of triplicate values with error bars representing the standard deviation from the mean.
(G) HHDII mice were immunised with 100 μg Z12 peptide mixed 1:1 in IFA (s.c.). […] Splenocytes were harvested 7 days after the final immunisation and analysed for the presence of epitope specific responses to increasing peptide concentration in IFNγ elispot assay. Responses are measured from individual mice as spots/million splenocytes and avidity is assigned as the concentration which gives 50% maximal effector function.
(H) HHDII mice were immunised with ImmunoBody DNA construc DCIB71 via gene gun at days 0, 7 and 14. Splenocytes were harvested 7 days after the final immunisation and analysed for the presence of epitope specific responses to increasing peptide concentration in IFNγ elispot assay. Responses are measured from individual mice as spots/million splenocytes and avidity is assigned as the concentration which gives 50% maximal effector function. […]

ILINSLPLV [Z282, I L I N S L P L V]
Peptide-specific IFNγ response, highest mean value (CD25 depleted animals, mouse 2): 137 SFC/million cells
Peptide-specific IFNγ response, highest mean value (non-depleted animals, mouse 3): 215 SFC/million cells
z12 epitope specific responses (frequency and avidity) (three weekly immunisations, peptide titration): low frequency and avidity epitope specific responses
